Key:
Parvovirus = experiment: Case study, Parvo infected puppy; details: for Treated - Improvement / Treated Virus or symptom free: Dog (puppy), 300 mg, 3 times/day, 4 days, wt.% per Table 2; for confirmed Parvo free / recovered completely / showed signs of recovery: puppy, 300 mg three times a day for 4 days
[1] = tested on: Porcine reproductive and respiratory syndrome virus; experiment: Case study, PRRS confirmed piglets; format: in vivo, Pig (piglet); details: for Treated - Improvement / Treated Virus or symptom free: Pig (piglet), wt.% per Table 2; for confirmed PRRS free / recovered completely / showed signs of recovery: piglets
Rotavirus = experiment: Case study, piglets with confirmed Rotavirus infections; format: in vivo, Pig (piglet); details: for Treated - Improvement / Treated Virus or symptom free: Pig (piglet), 2 days, wt.% per Table 2; for de-activation of the Rota virus confirmed / recovered completely / stopped having diarrhea: piglets
Description: All three piglets, which would normally experience 3 to 4 days of severe symptoms including diarrhea stopped having diarrhea on/after one day. The de-activation of the Rota virus infected was confirmed on/after the second day. The piglets recovered completely within 2 days.
Three piglets with confirmed Rotavirus infections were treated immediately with 50 mg of the compound of formula B, six times a day for 2 days. All 3 piglets, which would normally experience 4 to 5 days of severe symptoms including diarrhea stopped having diarrhea on/after the second day.
Both piglets, which would normally experience 3 to 4 days of severe symptoms including diarrhea stopped having diarrhea after one day.
(§1) All 3 piglets, which would normally experience 3 to 4 days of severe symptoms including diarrhea stopped having diarrhea after one day.
(§2) All 3 piglets, which would normally experience 3 to 4 days of severe symptoms including diarrhea stopped having diarrhea on/after one day.
as §2, §1

[2] = tested on: DNA enveloped, DNA non-enveloped, RNA enveloped and RNA non-enveloped viruses; experiment: In vivo case studies, overall conclusions across virus families; details: no base oil
Canine Herpes virus = experiment: Case study, Canine Herpes infected puppy; format: in vivo, Dog (puppy); details: for Treated - Improvement / Treated Virus or symptom free: Dog (puppy), 300 mg, 3 times/day, 4 days, wt.% per Table 2
[3] = tested on: human papilloma virus 2 and 7; experiment: Case study, skin warts of a patient
Description: Skin warts of patient were treated with 10 mg of the compound of formula B, three times a day for 3 days.
Skin warts of a patient were treated with 10 mg of the compound of formula B+C, three times a day for 3 days.
Skin warts of a patient were treated with 10 mg of the compound of formula A+B+C, three times a day for 3 days.

[4] = tested on: herpes simplex virus type 1; experiment: Case study, Herpes Labialis patient, topical treatment; format: in vivo, Human
[5] = 500 mg three times a day for 4 days
[6] = 500 mg three times a day for 2 days
[7] = puppy, 300 mg three times a day for 4 days
[8] = Human (skin), 10 mg, 3 times/day, 3 days, wt.% per Table 2
[9] = 50 mg six times a day for 3 days
[10] = 50 mg six times a day for 2 days
[11] = Human (skin), 10 mg, 3 times/day, 1 day, wt.% per Table 2
[12] = patient, topical, 10 mg three times a day for 1 day, from onset of lesions

SMILES | Treated - Improvement (Parvovirus) | Treated Virus or symptom free (Parvovirus) | confirmed Parvo free (Parvovirus) | recovered completely (Parvovirus) | showed signs of recovery (Parvovirus) | Treated - Improvement ([1]; 500 mg, 3 times/day, 4 days) | Treated Virus or symptom free ([1]; 500 mg, 3 times/day, 4 days) | confirmed PRRS free [1, 5] | recovered completely [1, 5] | showed signs of recovery [1, 5] | Treated - Improvement (Rotavirus; 500 mg, 3 times/day) | Treated Virus or symptom free (Rotavirus; 500 mg, 3 times/day) | de-activation of the Rota virus confirmed (Rotavirus; [6]) | recovered completely (Rotavirus; [6]) | stopped having diarrhea (Rotavirus; [6]) | results with 100 wt. % of compound compared with Tables 1 and 2 [2] | Treated - Improvement (Canine Herpes virus) | Treated Virus or symptom free (Canine Herpes virus) | confirmed Herpes free (Canine Herpes virus; [7]) | recovered completely (Canine Herpes virus; [7]) | also measured
C=C=C(C)c1cc(O)c(O)c(C(=O)C[C@](C)(O)C=C)c1 [Formula A] | 1 days | Day 4 | 4 day of treatment | 6 days | first | 1 days | Day 2 | 2 day of treatment | 4 days | one | 1 days | Day 2 | second | ≤ 2 days | one | same results | 2 days | Day 4 | 4 day of treatment | 10 days | showed signs of recovery (Canine Herpes virus; [7]): second
C=C=C(C)c1cc(O)c(O)c(C(=O)C(C)C(C)(C)O)c1 (stereo not shown) [Formula B, 2,3(dihydroxy), 5[3(1,2)butadiene], 2[2-methylbutane]benzenal] | – | – | – | – | – | – | – | – | – | – | – | – | – | – | – | same results | – | – | – | – | Treated - Improvement [3, 8]: 7 days; Treated Virus or symptom free [3, 8]: 21 days; skin tissue disappeared completely ([3]; patient, 10 mg three times a day for 3 days): 3 weeks; warts started to soften and becoming white ([3]; patient, 10 mg three times a day for 3 days, time printed in words): a week; Treated - Improvement ([1]; 50 mg, 6 times/day, 3 days): 2 days; Treated Virus or symptom free ([1]; 50 mg, 6 times/day, 3 days): Day 3; confirmed PRRS free [1, 9]: 3 day of treatment; recovered completely [1, 9]: 4 days; showed signs of recovery [1, 9]: second; Treated - Improvement (Rotavirus; 50 mg, 6 times/day): 2 days; Treated Virus or symptom free (Rotavirus; 50 mg, 6 times/day): Day 3; de-activation of the Rota virus confirmed (Rotavirus; [10]): second; recovered completely (Rotavirus; [10]): ≤ 3 days; stopped having diarrhea (Rotavirus; [10]): second; Treated - Improvement [4, 11]: 3 days; Treated Virus or symptom free [4, 11]: Day 4; course of the infection [4, 12]: did not get worse; lesions started to disappear [4, 12]: second; no more signs of infection [4, 12]: 4 days
C=C=C(C)c1cc(O)c(O)c(C(=O)O[C@](C)(O)C=C)c1 [Formula C, 2,3(dihydroxy), 5[3(1,2)butadiene], 2hydroxy,3butene benzoate] | 1 days | Day 4 | 4 day of treatment | 6 days | first | 1 days | Day 2 | 2 day of treatment | 4 days | one | 1 days | Day 2 | first | ≤ 2 days | one | same results | 2 days | Day 4 | 4 day of treatment | 7 days | –

— patent US9315448B2 (Cesa Alliance S.A., priority 2011, dated 2016)
